{"source": "paper PMC5982112", "about": "(Peptides, 2018)", "key": {"[1]": {"system": "Pseudomonas aeruginosa (PA01, ATTC 47085)", "assay": "Broth dilution sterilization assay, P. aeruginosa", "format": "cell-based", "settings": "lowest concentration that completely sterilizes bacteria in media, mean of at least three independent measurements"}, "[2]": {"system": "Escherichia coli (ATCC 25922)", "assay": "Broth dilution sterilization assay, E. coli", "format": "cell-based", "settings": "lowest concentration that completely sterilizes bacteria in media, mean of at least three independent measurements"}, "Bacillus cereus": {"system": "Bacillus cereus", "assay": "Broth dilution sterilization assay, B. cereus", "format": "cell-based", "settings": "lowest concentration that completely sterilizes bacteria in media, mean of at least three independent measurements"}, "[3]": {"system": "Staphylococcus aureus (ATCC 25923)", "assay": "Broth dilution sterilization assay, S. aureus", "format": "cell-based", "settings": "lowest concentration that completely sterilizes bacteria in media, mean of at least three independent measurements"}, "[4]": {"system": "Escherichia coli (ATCC 25922)", "format": "cell-based"}, "[5]": {"system": "Staphylococcus aureus (ATCC 25923)", "format": "cell-based"}, "S. aureus": {"system": "S. aureus", "settings": "ref 17 (El Karim et al.); cited from earlier work"}, "E. coli": {"system": "E. coli", "settings": "ref 17 (El Karim et al.); cited from earlier work"}, "[6]": {"system": "bloodstream (infective) form of Trypanosoma brucei", "settings": "cited from earlier work"}, "[7]": {"system": "procyclic (noninfective) form of T. brucei", "settings": "cited from earlier work"}}, "note": "Ends that are not written are not given here.", "data": [{"substance": "[Pip^3]PACAP38", "values": [{"measurement": "PA Broth, minimum inhibitory concentration (MIC)", "setting": "[1]", "value": 8.9, "unit": "µM"}, {"measurement": "EC Broth, minimum inhibitory concentration (MIC)", "setting": "[2]", "value": ">30", "unit": "µM"}, {"measurement": "BC Broth, minimum inhibitory concentration (MIC)", "setting": "Bacillus cereus", "value": 8.9, "unit": "µM"}, {"measurement": "SA Broth, minimum inhibitory concentration (MIC)", "setting": "[3]", "value": ">30", "unit": "µM"}]}, {"substance": "RRGWALRLVLAY-NH2 [ARVA]", "values": [{"measurement": "PA Broth, minimum inhibitory concentration (MIC)", "setting": "[1]", "value": 4.3, "unit": "µM"}, {"measurement": "EC Radial Diffusion, minimum inhibitory concentration (MIC)", "setting": "[4]", "value": 1.57, "unit": "µM"}, {"measurement": "SA Radial Diffusion, minimum inhibitory concentration (MIC)", "setting": "[5]", "value": 3.46, "unit": "µM"}, {"measurement": "EC Broth, minimum inhibitory concentration (MIC)", "setting": "[2]", "value": 2.3, "unit": "µM"}, {"measurement": "BC Broth, minimum inhibitory concentration (MIC)", "setting": "Bacillus cereus", "value": 6.4, "unit": "µM"}, {"measurement": "SA Broth, minimum inhibitory concentration (MIC)", "setting": "[3]", "value": 5.1, "unit": "µM"}]}, {"substance": "[Ala^22]PACAP38", "values": [{"measurement": "PA Broth, minimum inhibitory concentration (MIC)", "setting": "[1]", "value": 0.52, "unit": "µM"}, {"measurement": "EC Broth, minimum inhibitory concentration (MIC)", "setting": "[2]", "value": 2.15, "unit": "µM"}, {"measurement": "BC Broth, minimum inhibitory concentration (MIC)", "setting": "Bacillus cereus", "value": 4.84, "unit": "µM"}, {"measurement": "SA Broth, minimum inhibitory concentration (MIC)", "setting": "[3]", "value": ">30", "unit": "µM"}]}, {"substance": "indolicidin", "values": [{"measurement": "PA Broth, minimum inhibitory concentration (MIC)", "setting": "[1]", "value": ">50", "unit": "µM"}, {"measurement": "EC Broth, minimum inhibitory concentration (MIC)", "setting": "[2]", "value": 6.24, "unit": "µM"}, {"measurement": "BC Broth, minimum inhibitory concentration (MIC)", "setting": "Bacillus cereus", "value": 10.7, "unit": "µM"}, {"measurement": "SA Broth, minimum inhibitory concentration (MIC)", "setting": "[3]", "value": 7.9, "unit": "µM"}]}, {"substance": "[Pip^3,Aib^16,28,Ala^17,21,Lys^34,D-Lys^38]PACAP38", "values": [{"measurement": "PA Broth, minimum inhibitory concentration (MIC)", "setting": "[1]", "value": 0.64, "unit": "µM"}, {"measurement": "EC Broth, minimum inhibitory concentration (MIC)", "setting": "[2]", "value": 1.43, "unit": "µM"}, {"measurement": "BC Broth, minimum inhibitory concentration (MIC)", "setting": "Bacillus cereus", "value": 7.26, "unit": "µM"}, {"measurement": "SA Broth, minimum inhibitory concentration (MIC)", "setting": "[3]", "value": ">30", "unit": "µM"}]}, {"substance": "[D-Ser^2]PACAP38", "values": [{"measurement": "PA Broth, minimum inhibitory concentration (MIC)", "setting": "[1]", "value": 6.1, "unit": "µM"}, {"measurement": "EC Broth, minimum inhibitory concentration (MIC)", "setting": "[2]", "value": ">30", "unit": "µM"}, {"measurement": "BC Broth, minimum inhibitory concentration (MIC)", "setting": "Bacillus cereus", "value": 13.6, "unit": "µM"}, {"measurement": "SA Broth, minimum inhibitory concentration (MIC)", "setting": "[3]", "value": ">30", "unit": "µM"}]}, {"substance": "vasoactive intestinal peptide [VIP]", "values": [{"measurement": "Activity against S. aureus", "setting": "S. aureus", "value": "not against S. aureus"}, {"measurement": "PA Broth, minimum inhibitory concentration (MIC)", "setting": "[1]", "value": 30.0, "unit": "µM"}, {"measurement": "Activity against E. coli", "setting": "E. coli", "value": "had activity against E. coli"}, {"measurement": "EC Broth, minimum inhibitory concentration (MIC)", "setting": "[2]", "value": ">30", "unit": "µM"}, {"measurement": "BC Broth, minimum inhibitory concentration (MIC)", "setting": "Bacillus cereus", "value": ">30", "unit": "µM"}, {"measurement": "SA Broth, minimum inhibitory concentration (MIC)", "setting": "[3]", "value": ">30", "unit": "µM"}]}, {"substance": "[Pip^3,Aib^16,28,Ala^17,Lys^34,D-Lys^38]PACAP38", "values": [{"measurement": "PA Broth, minimum inhibitory concentration (MIC)", "setting": "[1]", "value": 0.52, "unit": "µM"}, {"measurement": "EC Broth, minimum inhibitory concentration (MIC)", "setting": "[2]", "value": 2.15, "unit": "µM"}, {"measurement": "BC Broth, minimum inhibitory concentration (MIC)", "setting": "Bacillus cereus", "value": 3.95, "unit": "µM"}, {"measurement": "SA Broth, minimum inhibitory concentration (MIC)", "setting": "[3]", "value": ">30", "unit": "µM"}]}, {"substance": "PACAP27", "values": [{"measurement": "PA Broth, minimum inhibitory concentration (MIC)", "setting": "[1]", "value": 23.6, "unit": "µM"}, {"measurement": "EC Broth, minimum inhibitory concentration (MIC)", "setting": "[2]", "value": ">30", "unit": "µM"}, {"measurement": "BC Broth, minimum inhibitory concentration (MIC)", "setting": "Bacillus cereus", "value": ">30", "unit": "µM"}, {"measurement": "SA Broth, minimum inhibitory concentration (MIC)", "setting": "[3]", "value": ">30", "unit": "µM"}]}, {"substance": "Pituitary adenylate cyclase-activating polypeptide [PACAP38]", "values": [{"measurement": "PA Broth, minimum inhibitory concentration (MIC)", "setting": "[1]", "value": 1.2, "unit": "µM"}, {"measurement": "Killing of bloodstream (infective) form of Trypanosoma brucei", "setting": "[6]", "value": "killed"}, {"measurement": "Effect on procyclic (noninfective) form of T. brucei", "setting": "[7]", "value": "resistant"}, {"measurement": "EC Broth, minimum inhibitory concentration (MIC)", "setting": "[2]", "value": 28.3, "unit": "µM"}, {"measurement": "BC Broth, minimum inhibitory concentration (MIC)", "setting": "Bacillus cereus", "value": 23.3, "unit": "µM"}, {"measurement": "SA Broth, minimum inhibitory concentration (MIC)", "setting": "[3]", "value": ">30", "unit": "µM"}]}, {"substance": "PACAP(6–38)", "values": [{"measurement": "PA Broth, minimum inhibitory concentration (MIC)", "setting": "[1]", "value": 30.0, "unit": "µM"}, {"measurement": "Killing of bloodstream (infective) form of Trypanosoma brucei", "setting": "[6]", "value": "effective"}, {"measurement": "EC Broth, minimum inhibitory concentration (MIC)", "setting": "[2]", "value": ">30", "unit": "µM"}, {"measurement": "BC Broth, minimum inhibitory concentration (MIC)", "setting": "Bacillus cereus", "value": ">30", "unit": "µM"}, {"measurement": "SA Broth, minimum inhibitory concentration (MIC)", "setting": "[3]", "value": ">30", "unit": "µM"}]}]}
